Assay results reported in patent publication US20050107386A1, “Methods of treating diseases and disorders by targeting multiple kinases” (priority 2003, published 2005).

System: HCT-116 cells
Experiment: SCID mouse/HCT-116 xenograft model
Conditions: for % Tumor Growth Inhibition: day 28; for TGD (500 mm^3): days to reach 500 mm^3; for TGD (1000 mm^3): days to reach 1000 mm^3

In the case of `CCc1c2c(nc3ccc(OC(=O)N4CCC(N5CCCCC5)CC4)cc13)-c1cc3c(c(=O)n1C2)COC(=O)[C@]3(O)CC.Cl` [Camptosar, reference compound], the “TGD (days to reach 1000 mm^3)” value (Table 3, i.p. 25 mg/kg q4d) is reported as >12 days, the “% Tumor Growth Inhibition” value (Table 3, i.p. 25 mg/kg q4d) is reported as 95.4% and the “% Tumor Growth Inhibition” value (Table 5, i.p. 2.5 mg/kg q4d) is reported as 66%. The “TGD (500 mm^3)” value (Table 5, i.p. 2.5 mg/kg q4d) was >6 days, the “TGD (1000 mm^3)” value (Table 5, i.p. 2.5 mg/kg q4d) was >10 days and the “% Tumor Growth Inhibition” value (Table 5, i.p. 10 mg/kg q4d) was 90%. The “TGD (500 mm^3)” value (Table 5, i.p. 10 mg/kg q4d) was >13 days and the “TGD (1000 mm^3)” value (Table 5, i.p. 10 mg/kg q4d) was >10 days.
